# From ChEMBL document CHEMBL5678818, “Discovery of potent SOS1 inhibitors that block RAS activation via disruption of the RAS-SOS1 interaction” (Proc Natl Acad Sci U S A, 2019)
# Key:
# [1] = target: T1, Ephrin type-A receptor 1 (Homo sapiens) (UniProt P21709); test: Inhibition of EPHA1 (unknown origin) assessed as residual activity at 100 nM by KINOMEscan analysis relative to control
# T1 sequence (whole entry): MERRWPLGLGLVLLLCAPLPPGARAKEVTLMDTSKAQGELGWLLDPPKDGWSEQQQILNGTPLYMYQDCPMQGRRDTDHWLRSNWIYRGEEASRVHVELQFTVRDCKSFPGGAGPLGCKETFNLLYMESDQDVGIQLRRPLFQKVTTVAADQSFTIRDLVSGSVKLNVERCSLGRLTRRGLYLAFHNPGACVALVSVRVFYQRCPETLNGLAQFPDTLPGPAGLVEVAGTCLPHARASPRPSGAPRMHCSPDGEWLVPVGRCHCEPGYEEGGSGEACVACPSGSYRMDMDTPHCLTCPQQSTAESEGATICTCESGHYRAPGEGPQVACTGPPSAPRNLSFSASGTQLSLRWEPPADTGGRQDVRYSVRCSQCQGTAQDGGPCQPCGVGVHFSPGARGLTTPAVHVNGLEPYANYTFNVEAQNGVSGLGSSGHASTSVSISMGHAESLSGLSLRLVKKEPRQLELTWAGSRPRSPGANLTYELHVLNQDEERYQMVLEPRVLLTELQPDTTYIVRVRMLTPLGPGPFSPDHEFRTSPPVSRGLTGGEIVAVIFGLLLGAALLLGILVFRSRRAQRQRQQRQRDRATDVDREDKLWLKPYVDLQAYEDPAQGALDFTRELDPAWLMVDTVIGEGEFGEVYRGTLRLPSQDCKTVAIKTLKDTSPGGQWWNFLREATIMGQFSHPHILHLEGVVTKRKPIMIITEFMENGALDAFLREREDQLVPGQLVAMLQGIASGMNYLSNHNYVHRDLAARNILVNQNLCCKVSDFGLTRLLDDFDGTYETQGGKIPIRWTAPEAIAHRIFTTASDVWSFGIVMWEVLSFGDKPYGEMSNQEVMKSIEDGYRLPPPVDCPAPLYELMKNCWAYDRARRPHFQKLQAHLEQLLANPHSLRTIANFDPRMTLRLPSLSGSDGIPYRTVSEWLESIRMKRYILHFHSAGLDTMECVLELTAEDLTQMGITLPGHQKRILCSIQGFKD
# [2] = tested on: Proto-oncogene tyrosine-protein kinase receptor Ret (Homo sapiens), P07949 [M918T]; test: Inhibition of RET M918T mutant (unknown origin) assessed as residual activity at 100 nM by KINOMEscan analysis relative to control
# [3] = target: STE20-like serine/threonine-protein kinase (Homo sapiens) (UniProt Q9H2G2); test: Inhibition of SLK (unknown origin) assessed as residual activity at 100 nM by KINOMEscan analysis relative to control
# [4] = tested on: Phosphatidylinositol 4,5-bisphosphate 3-kinase catalytic subunit alpha isoform (Homo sapiens), P42336 [H1047L]; test: Inhibition of PIK3CA H1047L mutant (unknown origin) assessed as residual activity at 100 nM by KINOMEscan analysis relative to control
# [5] = target: T2, Mitogen-activated protein kinase kinase kinase kinase 2 (Homo sapiens) (UniProt Q12851); test: Inhibition of MAP4K2 (unknown origin) assessed as residual activity at 100 nM by KINOMEscan analysis relative to control
# T2 sequence (whole entry): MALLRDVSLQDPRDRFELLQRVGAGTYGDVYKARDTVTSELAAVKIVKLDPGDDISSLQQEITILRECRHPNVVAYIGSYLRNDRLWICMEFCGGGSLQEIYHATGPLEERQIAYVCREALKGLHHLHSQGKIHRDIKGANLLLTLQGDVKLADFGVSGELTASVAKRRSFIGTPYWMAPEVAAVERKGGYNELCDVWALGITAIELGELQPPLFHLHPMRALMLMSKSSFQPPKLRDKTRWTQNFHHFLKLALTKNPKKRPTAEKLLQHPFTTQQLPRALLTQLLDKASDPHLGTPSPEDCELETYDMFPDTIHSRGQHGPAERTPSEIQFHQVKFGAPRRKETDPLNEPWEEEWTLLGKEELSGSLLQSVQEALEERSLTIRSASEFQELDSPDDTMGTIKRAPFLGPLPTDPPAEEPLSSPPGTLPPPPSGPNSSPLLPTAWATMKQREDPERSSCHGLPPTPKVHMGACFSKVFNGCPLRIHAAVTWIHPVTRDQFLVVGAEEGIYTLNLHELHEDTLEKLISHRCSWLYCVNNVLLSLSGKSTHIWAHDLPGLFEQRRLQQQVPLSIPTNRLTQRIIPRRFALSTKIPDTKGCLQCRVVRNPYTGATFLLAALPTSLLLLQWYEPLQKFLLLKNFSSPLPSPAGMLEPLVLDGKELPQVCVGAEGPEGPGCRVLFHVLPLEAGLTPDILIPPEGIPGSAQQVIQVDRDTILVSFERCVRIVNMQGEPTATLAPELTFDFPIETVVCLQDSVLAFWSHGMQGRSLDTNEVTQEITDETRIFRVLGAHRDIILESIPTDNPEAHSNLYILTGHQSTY
# [6] = target: High affinity nerve growth factor receptor (Homo sapiens) (UniProt P04629); test: Inhibition of TRKA (unknown origin) assessed as residual activity at 100 nM by KINOMEscan analysis relative to control
# Sequence of High affinity nerve growth factor receptor (Homo sapiens) (P04629 33-796 limits assumed): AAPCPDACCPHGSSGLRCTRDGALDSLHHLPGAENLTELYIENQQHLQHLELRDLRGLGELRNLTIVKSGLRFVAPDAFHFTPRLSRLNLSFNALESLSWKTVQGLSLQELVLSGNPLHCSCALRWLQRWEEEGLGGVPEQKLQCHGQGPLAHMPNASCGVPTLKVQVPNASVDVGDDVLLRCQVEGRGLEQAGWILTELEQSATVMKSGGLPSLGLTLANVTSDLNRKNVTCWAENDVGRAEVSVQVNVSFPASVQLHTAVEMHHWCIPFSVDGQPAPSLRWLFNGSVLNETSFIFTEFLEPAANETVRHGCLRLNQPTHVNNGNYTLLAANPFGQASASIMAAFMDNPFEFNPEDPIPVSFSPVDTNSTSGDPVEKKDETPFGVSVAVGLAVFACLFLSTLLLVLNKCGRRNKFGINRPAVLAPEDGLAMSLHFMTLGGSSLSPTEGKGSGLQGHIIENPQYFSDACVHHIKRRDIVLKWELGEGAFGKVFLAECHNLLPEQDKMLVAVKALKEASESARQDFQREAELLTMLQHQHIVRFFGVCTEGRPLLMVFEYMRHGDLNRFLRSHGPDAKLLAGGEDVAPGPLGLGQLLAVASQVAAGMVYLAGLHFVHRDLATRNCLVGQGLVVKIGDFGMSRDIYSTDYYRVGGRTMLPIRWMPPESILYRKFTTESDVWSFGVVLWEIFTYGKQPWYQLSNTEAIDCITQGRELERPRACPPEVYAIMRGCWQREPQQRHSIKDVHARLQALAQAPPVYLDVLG
# Sequence of Proto-oncogene tyrosine-protein kinase receptor Ret (Homo sapiens), P07949 [M918T] (P07949 whole entry M918T): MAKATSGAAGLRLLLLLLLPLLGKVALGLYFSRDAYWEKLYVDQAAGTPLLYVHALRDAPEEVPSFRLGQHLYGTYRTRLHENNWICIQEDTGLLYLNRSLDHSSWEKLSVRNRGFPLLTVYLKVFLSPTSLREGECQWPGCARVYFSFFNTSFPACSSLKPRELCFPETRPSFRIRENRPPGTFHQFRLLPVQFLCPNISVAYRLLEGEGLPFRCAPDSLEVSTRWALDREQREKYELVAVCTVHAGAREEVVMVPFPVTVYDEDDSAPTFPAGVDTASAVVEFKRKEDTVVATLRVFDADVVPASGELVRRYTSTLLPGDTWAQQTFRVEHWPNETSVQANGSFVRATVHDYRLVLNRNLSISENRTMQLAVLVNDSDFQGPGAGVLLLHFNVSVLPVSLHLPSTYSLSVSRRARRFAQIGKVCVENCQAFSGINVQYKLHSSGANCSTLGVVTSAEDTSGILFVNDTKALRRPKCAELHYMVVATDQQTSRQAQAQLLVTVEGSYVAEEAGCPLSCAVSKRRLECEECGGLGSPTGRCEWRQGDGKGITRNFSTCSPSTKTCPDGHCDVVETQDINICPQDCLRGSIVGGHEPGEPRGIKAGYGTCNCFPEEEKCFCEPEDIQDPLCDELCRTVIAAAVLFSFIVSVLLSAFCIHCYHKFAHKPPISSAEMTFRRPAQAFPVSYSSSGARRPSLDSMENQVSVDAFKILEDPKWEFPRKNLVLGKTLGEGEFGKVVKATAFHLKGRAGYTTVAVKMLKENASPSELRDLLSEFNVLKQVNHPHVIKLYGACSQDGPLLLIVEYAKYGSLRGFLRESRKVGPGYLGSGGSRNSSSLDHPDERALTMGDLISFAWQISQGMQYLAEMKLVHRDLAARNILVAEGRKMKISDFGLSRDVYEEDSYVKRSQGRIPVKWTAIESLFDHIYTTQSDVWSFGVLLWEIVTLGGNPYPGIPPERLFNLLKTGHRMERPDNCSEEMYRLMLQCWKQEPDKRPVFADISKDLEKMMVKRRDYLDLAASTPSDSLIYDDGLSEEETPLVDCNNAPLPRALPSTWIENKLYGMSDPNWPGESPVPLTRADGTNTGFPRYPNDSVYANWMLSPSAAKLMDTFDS
# Sequence of Phosphatidylinositol 4,5-bisphosphate 3-kinase catalytic subunit alpha isoform (Homo sapiens), P42336 [H1047L] (P42336 whole entry H1047L, canonical isoform): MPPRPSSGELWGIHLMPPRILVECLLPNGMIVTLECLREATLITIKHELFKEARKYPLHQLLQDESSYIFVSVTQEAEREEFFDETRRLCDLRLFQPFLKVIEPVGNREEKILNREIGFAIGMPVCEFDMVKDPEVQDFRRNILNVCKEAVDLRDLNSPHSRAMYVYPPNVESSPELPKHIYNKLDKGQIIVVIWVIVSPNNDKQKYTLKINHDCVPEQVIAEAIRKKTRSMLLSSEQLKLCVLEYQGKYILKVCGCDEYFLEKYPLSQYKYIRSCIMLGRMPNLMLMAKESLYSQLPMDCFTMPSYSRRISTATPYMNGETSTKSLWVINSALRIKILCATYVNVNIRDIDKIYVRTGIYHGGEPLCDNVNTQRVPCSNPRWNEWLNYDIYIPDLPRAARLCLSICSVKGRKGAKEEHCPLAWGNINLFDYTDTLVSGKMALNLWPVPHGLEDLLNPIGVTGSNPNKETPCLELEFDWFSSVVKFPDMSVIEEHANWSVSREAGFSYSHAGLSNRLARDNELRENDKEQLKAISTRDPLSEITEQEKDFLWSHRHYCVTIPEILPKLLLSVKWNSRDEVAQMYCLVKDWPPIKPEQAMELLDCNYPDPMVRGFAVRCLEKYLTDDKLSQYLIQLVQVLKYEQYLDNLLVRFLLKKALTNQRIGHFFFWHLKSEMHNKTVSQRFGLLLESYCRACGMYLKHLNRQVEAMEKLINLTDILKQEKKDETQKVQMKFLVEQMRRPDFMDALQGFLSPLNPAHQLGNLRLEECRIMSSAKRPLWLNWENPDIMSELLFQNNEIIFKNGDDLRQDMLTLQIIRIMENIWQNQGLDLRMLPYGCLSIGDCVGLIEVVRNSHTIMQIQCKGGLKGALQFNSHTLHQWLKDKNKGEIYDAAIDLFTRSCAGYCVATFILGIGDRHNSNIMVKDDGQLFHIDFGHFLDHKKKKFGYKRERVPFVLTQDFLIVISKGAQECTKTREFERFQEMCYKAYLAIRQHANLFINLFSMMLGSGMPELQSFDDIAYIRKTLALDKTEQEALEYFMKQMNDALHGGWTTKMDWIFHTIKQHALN
# Sequence of STE20-like serine/threonine-protein kinase (Homo sapiens) (Q9H2G2 whole entry, looked up, canonical isoform): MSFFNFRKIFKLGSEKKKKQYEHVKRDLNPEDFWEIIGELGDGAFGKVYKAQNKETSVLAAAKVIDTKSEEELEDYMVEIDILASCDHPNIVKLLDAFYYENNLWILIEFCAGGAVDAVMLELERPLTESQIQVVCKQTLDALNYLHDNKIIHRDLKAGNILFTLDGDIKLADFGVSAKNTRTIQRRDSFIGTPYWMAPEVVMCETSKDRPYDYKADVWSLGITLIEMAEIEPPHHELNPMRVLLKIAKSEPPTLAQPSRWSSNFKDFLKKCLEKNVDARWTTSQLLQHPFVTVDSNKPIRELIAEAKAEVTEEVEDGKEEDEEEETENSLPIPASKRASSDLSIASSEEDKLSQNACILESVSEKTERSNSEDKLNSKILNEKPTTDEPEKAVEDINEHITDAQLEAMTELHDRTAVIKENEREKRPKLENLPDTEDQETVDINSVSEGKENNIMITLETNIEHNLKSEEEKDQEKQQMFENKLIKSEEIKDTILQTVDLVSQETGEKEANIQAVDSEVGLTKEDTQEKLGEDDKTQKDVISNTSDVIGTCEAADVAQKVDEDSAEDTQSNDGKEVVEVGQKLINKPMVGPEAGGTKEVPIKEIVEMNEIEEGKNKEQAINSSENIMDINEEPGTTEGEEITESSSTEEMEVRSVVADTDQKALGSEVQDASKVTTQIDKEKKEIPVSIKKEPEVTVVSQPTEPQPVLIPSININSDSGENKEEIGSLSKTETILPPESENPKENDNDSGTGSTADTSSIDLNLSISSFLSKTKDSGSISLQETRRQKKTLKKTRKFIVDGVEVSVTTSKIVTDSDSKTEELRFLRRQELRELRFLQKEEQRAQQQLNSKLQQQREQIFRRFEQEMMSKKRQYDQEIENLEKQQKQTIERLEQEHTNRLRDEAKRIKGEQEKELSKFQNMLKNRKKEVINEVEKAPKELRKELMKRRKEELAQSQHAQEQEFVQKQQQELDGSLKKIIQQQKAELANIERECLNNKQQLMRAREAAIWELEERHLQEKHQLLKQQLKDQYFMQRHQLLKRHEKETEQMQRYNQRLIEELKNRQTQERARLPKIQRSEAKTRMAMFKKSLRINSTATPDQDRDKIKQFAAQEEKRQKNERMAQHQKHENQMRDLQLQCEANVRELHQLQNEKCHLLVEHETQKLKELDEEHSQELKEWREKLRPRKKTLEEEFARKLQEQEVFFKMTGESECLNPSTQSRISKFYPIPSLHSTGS
smiles,measurement,setting,value
COc1cc2ncnc(N[C@H](C)c3cccc4ccccc34)c2cc1OC,Activity,[1],75%
same,Activity,[2],99%
same,Activity,[3],100%
same,Activity,[4],73%
same,Activity,[5],83%
same,Activity,[6],100%
